Measured values taken from PubChem BioAssay (NCI).
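Grown in 96-well plates, cells were treated for 48 hours with each compound at five concentrations. Insufficient inhibition: endpoint recorded as highest concentration tested. The concentration for 50% growth inhibition is given as GI50. TGI: total growth inhibition.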

Experiments:
Assay in all cases: DTP human tumour cell line panel, 48 h
OVCAR-8 ovarian = system: OVCAR-8 ovarian
SF-295 CNS = system: SF-295 CNS
SNB-19 CNS = system: SNB-19 CNS
KM20L2 colon = system: KM20L2 colon
RXF 393 renal = system: RXF 393 renal
CAKI-1 renal = system: CAKI-1 renal
SR leukemia = system: SR leukemia
HCT-15 colon = system: HCT-15 colon
MCF7 breast = system: MCF7 breast

Row | SMILES | TGI (OVCAR-8 ovarian) | TGI (SF-295 CNS) | TGI (SNB-19 CNS) | TGI (KM20L2 colon) | TGI (RXF 393 renal) | TGI (CAKI-1 renal) | TGI (SR leukemia) | TGI (HCT-15 colon) | GI50 (RXF 393 renal) | GI50 (CAKI-1 renal) | GI50 (OVCAR-8 ovarian) | GI50 (SF-295 CNS) | GI50 (HCT-15 colon) | GI50 (SNB-19 CNS) | GI50 (KM20L2 colon) | GI50 (MCF7 breast) | TGI (MCF7 breast) | GI50 (SR leukemia)
1 | COC(=O)NC(=Nc1ccc(Oc2ccccc2)cc1NC=O)NC(=O)OC | 8.57 µM | > 100 µM | > 100 µM | 0.49 µM | – | – | – | – | – | – | – | – | – | – | – | – | – | –
2 | COc1ccc2c(c1)[n+]([O-])c(-c1ccc(Br)cc1)c(N)[n+]2[O-] | > 100 µM | > 100 µM | > 100 µM | > 100 µM | > 100 µM | > 100 µM | > 100 µM | – | – | – | – | – | – | – | – | – | – | –
3 | C[C@]12CCC[C@H](O)[C@H]1C[C@H](CO)CC2 | > 100 µM | > 100 µM | > 100 µM | > 100 µM | – | > 100 µM | > 100 µM | > 100 µM | – | – | – | – | – | – | – | – | – | –
4 | C/C=C(/CCC1NCCC2c3ccccc3NC12)[Si](C)(C)C (stereo not drawn) | 21.1 µM | 29.1 µM | 29 µM | 16.2 µM | 19.2 µM | 22.8 µM | 12.5 µM | 24.9 µM | – | – | – | – | – | – | – | – | – | –
5 | Cc1cc(Cl)ccc1NC(=O)CCCC(=O)C1CCC/C1=N\NC(=O)CC#N (stereo not drawn) | > 100 µM | > 100 µM | > 100 µM | > 100 µM | – | > 100 µM | – | > 100 µM | – | – | – | – | – | – | – | – | – | –
6 | C1COCCOCCOCCOCCOCCO1.[Cl][Sn]([Cl])([c]1ccccc1)[c]1ccccc1 | 16.4 µM | 30 µM | 14.5 µM | 18.2 µM | 4.06 µM | 1.75 µM | – | 13.5 µM | 2.21 µM | 0.478 µM | 4.97 µM | 16.1 µM | 4.14 µM | 6.48 µM | 7.02 µM | – | – | –
7 | CCOC(=O)C1=C(C)N(Cc2ccccc2)C(=O)C1CC#N (stereo not drawn) | > 100 µM | > 100 µM | > 100 µM | > 100 µM | > 100 µM | > 100 µM | > 100 µM | > 100 µM | – | – | – | – | – | – | – | – | – | –
8 | Cc1cccc2nc3cccc(C(=O)NCCNCCNCCNC(=O)c4cccc5nc6cccc(C)c6nc45)c3nc12 | 1.14 µM | 1.11 µM | 15.5 µM | – | 0.228 µM | 23.2 µM | 1.22 µM | > 100 µM | < 0.0149 µM | 0.0461 µM | < 0.01 µM | < 0.01 µM | 0.0268 µM | < 0.01 µM | – | < 0.01 µM | > 33 µM | < 0.01 µM
9 | CSCC[C@H](NC(=O)[C@H](CC(C)C)NC(=O)[C@@H](Cc1ccccc1)NC(=O)CNC(=O)[C@@H](NC(=O)[C@H](C)NC(=O)[C@H](Cc1c[nH]c2ccccc12)NC(=O)[C@H](CCC(N)=O)NC(=O)[C@H](N)CC(N)=O)C(C)C)C(N)=O | > 12.5 µM | > 12.5 µM | > 12.5 µM | – | > 12.5 µM | > 12.5 µM | 10.7 µM | > 12.5 µM | – | – | – | – | – | – | – | – | > 12.5 µM | –
10 | Cn1c2ccccc2c(=O)c2c(O)cc3c(c21)CC(C1(C)CO1)O3 (stereo not drawn) | 2.51 µM | 39.2 µM | 26.9 µM | 31.8 µM | 2.85 µM | 17.9 µM | – | 30.6 µM | – | – | – | – | – | – | – | – | 1.89 µM | –
11 | CC(=O)c1ccc(Nc2nc(Nc3ccc(F)cc3)nc(Nc3ccc(F)cc3)n2)cc1 | 24.8 µM | 24.2 µM | 53.8 µM | – | 11.5 µM | 27.7 µM | > 100 µM | > 100 µM | 3.15 µM | 9.02 µM | 6.91 µM | 7.13 µM | 8.49 µM | 16.4 µM | – | 4.12 µM | 61.2 µM | 4.24 µM
12 | CN1CC[C@]2(c3cccc(O)c3)CC(=O)/C(=C/c3ccccc3)[C@H]1C2 | 9.46 µM | 17 µM | 17.4 µM | – | 8.03 µM | 9.93 µM | 5.9 µM | 10.6 µM | 2.5 µM | – | – | 4.5 µM | 2.5 µM | 4.75 µM | – | – | 10.4 µM | 1.35 µM
13 | CCC(CCC(C)C1CCC2C3CC=C4CC(OC5OC(CO)C(O)C(O)C5O)CCC4(C)C3CCC12C)C(C)C (stereo not drawn) | > 100 µM | > 100 µM | > 100 µM | – | > 100 µM | > 100 µM | > 100 µM | > 100 µM | – | – | – | – | – | – | – | – | > 100 µM | –
14 | CC(=O)[CH-]C(=O)c1ccccc1.CC(=O)[CH-]C(=O)c1ccccc1.CC[C@H](/C=C/C(C)[C@H]1CCC2[C@@H]3CC=C4C[C@@H]([O-])CC[C@]4(C)C3CC[C@@]21C)C(C)C.CC[O-].[Ti+4] (stereo partly drawn) | > 100 µM | > 100 µM | > 100 µM | > 100 µM | > 100 µM | > 100 µM | – | > 100 µM | 84.4 µM | > 100 µM | > 100 µM | > 100 µM | > 100 µM | > 100 µM | > 100 µM | – | – | –
15 | CCOc1ccc2c(C)cc(=O)oc2c1 | > 100 µM | > 100 µM | > 100 µM | – | > 100 µM | > 100 µM | > 100 µM | > 100 µM | – | – | – | – | – | – | – | – | > 100 µM | –
16 | CCN(Cc1ccccc1Cl)c1ccc(CO)c(Cl)c1 | 27.1 µM | 7.45 µM | 26.3 µM | – | 20 µM | 21 µM | 45.1 µM | 24 µM | 3.75 µM | 5.82 µM | 12.8 µM | 0.775 µM | 10.2 µM | 13.2 µM | – | 0.442 µM | 12.1 µM | 17.3 µM
17 | Cc1cc(=O)n2c3c(c4c(cc13)c(CO)cc(=O)n4C)OC2 | 39.1 µM | > 100 µM | > 100 µM | > 100 µM | – | > 100 µM | – | – | – | – | – | – | – | – | – | – | – | –
18 | COC(=O)NN1C(C)=C(C(=O)OC)C2(C#N)C(C(=O)OC)=C(C)N(NC(=O)OC)C12N (stereo not drawn) | > 100 µM | – | > 100 µM | > 100 µM | – | > 100 µM | – | > 100 µM | – | – | – | – | – | – | – | – | – | –
19 | c1ccc(CN2CCC3(CC2)SSC2(CCN(Cc4ccccc4)CC2)SS3)cc1 | > 100 µM | > 100 µM | > 100 µM | – | > 100 µM | > 100 µM | > 100 µM | > 100 µM | – | – | – | – | – | – | – | – | > 100 µM | –
20 | CC1=C(C(=O)Nc2ccc3[nH]ncc3c2)C(c2ccc(Cl)c(Cl)c2)CC(=O)N1 (stereo not drawn) | > 25 µM | > 25 µM | > 25 µM | – | > 25 µM | > 25 µM | > 25 µM | > 25 µM | 8.2 µM | > 16 µM | > 25 µM | > 19.5 µM | > 25 µM | > 25 µM | – | > 24.1 µM | > 25 µM | > 25 µM
21 | COc1ccc2c(Cc3c4ccccc4cc4ccccc34)cncc2c1O | 5.74 µM | 8.35 µM | > 41.6 µM | – | > 21.6 µM | 36.3 µM | 0.551 µM | > 22 µM | – | – | – | – | – | – | – | – | > 38.2 µM | –
